Experiments:
[1] = castrated male mice
Description: (§1) To exploit this pathway we used B6CBAF1/J hybrid male mice reported to be susceptible to ADA. As a control and to remove background testosterone effects all the B6CBAF1/J hybrid male mice were castrated and split into two groups (n=6). The first group served as controls (Vehicle) and the second experimental group was treated with 5-α-dihydrotestosterone (5α-DHT). The 5α-DHT was administered by sub-dermal transplantation of slow release pellets purchased from Innovative Research of America. The control group was also transplanted with identically formulated placebo pellets (without 5α-DHT). Both pellets were transplanted below the right ear using a small incision that was sealed with staples. Specifically, two 21 day release and one 90 day release pellets containing 10 mg of 5α-DHT respectively were used for each experimental mouse with corresponding placebo pellets for the controls (n=6). Hair loss of the mice and the effects of 5α-DHT were then monitored over 5 months as described below.
FIGS. 8A-8B includes DEXA analysis pictures of representative Vehicle and 5α-DHT male castrated mice showing increased bone and lean mass with treated mice. […] Two-way ANOVA analysis of the temporal weight change show significant differences for 5α-DHT treatment (p<0.0001) and change over time (p<0.0001) with no significant interaction (n=6). This confirms 5α-DHT pellet infusion was effective (see also below).
Detailed quantitative analyses of the DEXA experiments are presented graphically in FIG. 9. […] Total and femur analyses are shown and the numbers shown on the histograms above the asterisks (*) are p values calculated using a two-tailed unpaired t test at 95% confidence intervals. A P<0.05 is considered significant and NS indicates not significant.

[2] = femurs, 3D μCT, castrated male mice
Description: as §1

[3] = test system: hair loss; conditions: castrated male mice
Description: as §1

[4] = test system: hair density; conditions: hair plucked from defined ROI, castrated male mice, vs placebo
Description: A second method was then used to directly quantitate hair density, hair quality and vellus hair occurrence. Specifically, mice were sacrificed and the pelts removed and fixed in buffered formalin for histology. Also, a plastic template with a fixed portal was used to demarcate a defined and identical region of interest (ROI) between the ears and above the shoulder blades (FIG. 12). Hair was then plucked from this region weighed and microscopically analyzed. […] A plastic template with portal removed was used to facilitate hair removal from defined region of interest (ROI). Top pictures comparing control (right) and experimental (left) hairs removed from the ROI. […] The numbers shown on the histograms above the asterisk (*) is the p value calculated using a two-tailed unpaired t test at 95% confidence intervals. A P<0.05 is considered significant.

C[C@]12CCC(=O)C[C@@H]1CC[C@@H]1[C@@H]2CC[C@]2(C)[C@@H](O)CC[C@@H]12 [5α-DHT, 5-α-dihydrotestosterone]
Bone Mineral Content [BMC] ([1]; DEXA, vs placebo pellets): major increases | Bone mineral Density [BMD] ([1]; DEXA, vs placebo pellets): major increases | lean mass ([1]; DEXA, vs vehicle): increased | lean/fat mass ratios ([1]; DEXA, vs vehicle): increased | weight ([1]; sub-dermal slow release pellets, 5 months, vs placebo pellets): major increases | cancellous bone and trabecular architecture at the top of the epiphyses [2]: major increases | hair loss from head and shoulder blade region (inverse integrated pixel density) ([3]; 5 months, inflection point after 2 months): accelerated hair loss | hair at the pellet implant site ([3]; photographs, vs placebo pellet): major hair loss | hair density, size and quality [4]: significantly reduced
